The results in this text go back to patent US20230087342A1, “AZEPANE DERIVATIVE” (Nippon Chemiphar Co., Ltd., priority 2019, published 2023).

Structures are written as SMILES. Like-named read-outs stand apart in the source and are kept apart here.

In general, EC50 refers to the concentration needed to bring the measured effect to its halfway point. Read a low EC50 as greater potency. A word on the ED50: it is the dose that gives a 50% effect, or the effect in half of the subjects. Broadly, the CLint scaled is the capacity of the preparation to metabolise the compound, expressed as a volume cleared per time. A low value points to greater metabolic stability.

One data set deals with T1, human κ opioid receptors (Homo sapiens, UniProt P41145).
T1 construct: host or cells: CHO cells
Briefly: Opioid receptor function test (Lance Ultra cAMP kit, agonist activity). The format is cell-based. The conditions noted are these: CHO cells expressing human κ opioid receptors, 10 μM forskolin, 30 minutes. The procedure, abridged: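 CHO cells expressing human κ opioid receptor incubated 30 min with test compound (10^−14 to 10^−7 M) and 10 μM forskolin in HSS/5 mM HEPES pH 7.4 with 0.5 mM IBMX and 0.1% SA. cAMP measured by TR-FRET (Lance Ultra) 1 h after detection reagent addition.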

For another data set, the system named is ICR male mice. The data set is described as follows: Mouse acetic acid writhing test. It is filed as in vivo. The settings on record: hydrochloride; for ED50: Mus musculus, read-out: ED50 value (writhing suppressing effect). As for the experimental part: Mouse Acetic Acid Writhing Test
The analgesic effect of the test compound was evaluated by an acetic acid writhing test. For the experiment, ICR male mice were used and acclimated to a plastic open field for 30 minutes before starting the test. After acclimation, the mice were administered with the test compound (30 to 3000 μg/kg) or water for injection subcutaneously or orally, and once returned to the open field. Thirty minutes after the administration of the test compound, a 0.6% aqueous acetic acid solution was additionally administered to the same mice by intraperitoneal administration. From 10 minutes after administration of the 0.6% aqueous acetic acid solution, the number of writhing reactions (writhing reactions in which the mouse stretches while pressing the abdominal cavity against the floor) induced in the mice was measured for 10 minutes, and the number of writhing reactions was compared with that of a control group (water for injection-administrated group) to evaluate the analgesic effect of the test compound.
On the technique in general: An intraperitoneal irritant provokes the stretching counted in writhing tests.

A short description of a further data set: Metabolic stability test. It is filed as in vitro ADME. The conditions noted are these: human liver microsomes, 0 to 30 minutes; a hydrochloride was used. As for the experimental part: To determine the unchanged product-residual ratio of the test compound in the reaction sample, human liver microsomes and the test compound were reacted for a predetermined time (0 to 30 minutes). The unchanged product-residual ratio at a reaction time of 0 hours was considered 100%, the residual ratio after incubation was log-linear plotted with respect to the time, a regression line (y=100 e^−kt, k=slope of the line: elimination rate constant) was determined, and the metabolic clearance CLint (mL/min/kg) was calculated using the following formula.
CLint*=k (−min)×45 (mg MS protein/g liver)×21 (g liver/kg)/MS protein (mg MS protein/mL)
*: Yamazaki S.; Skaptason J.; Romero D, Vekich S.; Jones HM.; Tan W.; Wilner KD.; Koudriakova T. Drug Metab. Dispos. 2011 March; 39 (3): 383-393.
In general terms: Liver microsomes are vesicles of endoplasmic reticulum, rich in cytochrome P450 enzymes.

T1 sequence (P41145 whole entry): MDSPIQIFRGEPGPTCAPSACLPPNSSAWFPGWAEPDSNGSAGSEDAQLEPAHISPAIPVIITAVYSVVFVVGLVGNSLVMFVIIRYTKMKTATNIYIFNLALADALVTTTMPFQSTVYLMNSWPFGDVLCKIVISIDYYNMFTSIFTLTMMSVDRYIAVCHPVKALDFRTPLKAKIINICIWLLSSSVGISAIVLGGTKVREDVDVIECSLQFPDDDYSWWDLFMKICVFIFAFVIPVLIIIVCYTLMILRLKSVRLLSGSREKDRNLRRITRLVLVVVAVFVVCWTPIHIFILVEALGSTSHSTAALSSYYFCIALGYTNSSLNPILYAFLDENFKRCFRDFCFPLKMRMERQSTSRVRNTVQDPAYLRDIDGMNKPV

In the case of `Cc1cnn(CCN2CC[C@]34CCN(CC5CC5)[C@H](Cc5ccc(O)cc53)[C@]4(O)CC2)c1` [Example 50, (5aS,6R,11bS)-14-(cyclopropylmethyl)-3-(2-(4-methyl-1H-pyrazol-1-yl)ethyl)-2,3,4,5,6,7-hexahydro-6,11b-(epiminoethano)naphtho[1,2-d]azepine-5a,10(1H)-diol], on human κ opioid receptors, the concentration for a half-maximal effect (EC50) is 0.027 nM. In the data set on ICR male mice (Oral), the median effective dose (ED50) turned out to be 0.21 mg/kg. Besides, the Writhing suppression rate entry with ICR male mice (Oral, dose 300 (μg/kg)) was “+ (40 ≤ % <60: +)”; with ICR male mice (Oral, dose 1000 (μg/kg)) it was “+++ (80 ≤ %: +++)”. The compound also returned an intrinsic metabolic clearance (CLint scaled) in the data set “Metabolic stability test” of 8.7 mL/min/kg.

In the case of `Oc1ccc2c(c1)[C@@]13CCN(CCc4ccccn4)CC[C@@]1(O)[C@@H](C2)N(CC1CC1)CC3` [Example 77, (5aS,6R,11bS)-14-(cyclopropylmethyl)-3-(2-(pyridin-2-yl)ethyl)-2,3,4,5,6,7-hexahydro-6,11b-(epiminoethano)naphtho[1,2-d]azepine-5a,10(1H)-diol], a half-maximal effect on human κ opioid receptors (EC50) was put at 0.026 nM. In the data set on ICR male mice (sc, Subcutaneous), the ED50 was 0.0125 mg/kg. Further, the Writhing suppression rate result with ICR male mice (Subcutaneous, dose 30 (μg/kg)) is given as “+ (40 ≤ % <60: +)”; with ICR male mice (Subcutaneous, dose 300 (μg/kg)), “+++ (80 ≤ %: +++)”. In addition, the CLint scaled in “Metabolic stability test” was found to be 6.7 mL/min/kg.

For `O=C(Cc1ccccn1)N1CC[C@]23CCN(CC4CC4)[C@H](Cc4ccc(O)cc42)[C@]3(O)CC1` [Example 22, 1-((5aS,6R,11bR)-14-(cyclopropylmethyl)-5a,10-dihydroxy-1,2,5,5a,6,7-hexahydro-6,11b-(epiminoethano)naphtho[1,2-d]azepin-3(4H)-yl)-2-(pyridin-2-yl)ethan-1-one], the half-maximal effective concentration (EC50) on human κ opioid receptors worked out at 0.13 nM. Moreover, the ED50 in the data set on ICR male mice (Oral) was 0.0152 mg/kg. Further, the Writhing suppression rate result is recorded as “+ (40 ≤ % <60: +)” in the data set on ICR male mice (Oral, dose 30 (μg/kg)) and “++ (60 ≤ % <80: ++)” in the data set with ICR male mice (Oral, dose 300 (μg/kg)). The same compound showed a CLint scaled in “Metabolic stability test” of 7.2 mL/min/kg.

In turn, `NC(=O)c1ccc2c(c1)[C@@]13CCN(C(=O)Cn4cc(C(F)(F)F)cn4)CC[C@@]1(O)[C@@H](C2)N(CC1CC1)CC3` [Example 266, (5aS,6R,11bR)-14-(cyclopropylmethyl)-5a-hydroxy-3-(2-(4-(trifluoromethyl)-1H-pyrazol-1-yl)acetyl)-1,2,3,4,5,5a,6,7-octahydro-6,11b-(epiminoethano)naphtho[1,2-d]azepine-10-carboxamide] yielded an EC50 at human κ opioid receptors of 0.074 nM. Besides, the intrinsic metabolic clearance (CLint scaled) in the data set “Metabolic stability test” was determined as 4.4 mL/min/kg.

Take `Oc1ccc2c(c1)[C@@]13CCN(CCc4cscn4)CC[C@@]1(O)[C@@H](C2)N(CC1CC1)CC3` [Example 34, (5aS,6R,11bS)-14-(cyclopropylmethyl)-3-(2-(thiazol-4-yl)ethyl)-2,3,4,5,6,7-hexahydro-6,11b-(epiminoethano)naphtho[1,2-d]azepine-5a,10(1H)-diol]: at human κ opioid receptors, the EC50 amounted to 0.04 nM. In addition, the Writhing suppression rate entry in the data set with ICR male mice (Subcutaneous, dose 30 (μg/kg)) is recorded as “++ (60 ≤ % <80: ++)”.

The compound `Oc1ccc2c(c1)[C@@]13CCN(CCc4ccc5ccccc5n4)CC[C@@]1(O)[C@@H](C2)N(CC1CC1)CC3` [Example 124, (5aS,6R,11bS)-14-(cyclopropylmethyl)-3-(2-(quinolin-2-yl)ethyl)-2,3,4,5,6,7-hexahydro-6,11b-(epiminoethano)naphtho[1,2-d]azepine-5a,10(1H)-diol] registered a 50% effective concentration (EC50) on human κ opioid receptors of 0.04 nM. Also, the CLint scaled in the data set “Metabolic stability test” was found to be 14.3 mL/min/kg.

`Cc1cnn(CCN2CC[C@]34CCN(CC5CC5)[C@H](Cc5cc(Cl)c(O)cc53)[C@]4(O)CC2)c1` [Example 326, (5aS,6R,11bS)-9-chloro-14-(cyclopropylmethyl)-3-(2-(4-methyl-1H-pyrazol-1-yl)ethyl)-2,3,4,5,6,7-hexahydro-6,11b-(epiminoethano)naphtho[1,2-d]azepine-5a,10(1H)-diol]: the EC50 at human κ opioid receptors stood at 0.18 nM. In the data set “Metabolic stability test”, the intrinsic metabolic clearance (CLint scaled) is 10.9 mL/min/kg.

`O=C(Cc1ccccn1)N1CC[C@]23CCN(CC4CC4)[C@H](Cc4cc(Cl)c(O)cc42)[C@]3(O)CC1` [Example 308, 1-((5aS,6R,11bR)-9-chloro-14-(cyclopropylmethyl)-5a,10-dihydroxy-1,2,5,5a,6,7-hexahydro-6,11b-(epiminoethano)naphtho[1,2-d]azepin-3(4H)-yl)-2-(pyridin-2-yl)ethan-1-one] returned an EC50 on human κ opioid receptors of 0.6 nM. For the same compound, in the data set on ICR male mice (Oral), the ED50 came to 1.42 mg/kg. Also, the Writhing suppression rate result in the data set on ICR male mice (Oral, dose 1000 (μg/kg)) is “+ (40 ≤ % <60: +)”; in the data set on ICR male mice (Oral, dose 3000 (μg/kg)) it was “++ (60 ≤ % <80: ++)”. In addition, the CLint scaled in “Metabolic stability test” came to 9 mL/min/kg.

On human κ opioid receptors, `Cc1cnn(C[C@@H](C)N2CC[C@]34CCN(CC5CC5)[C@H](Cc5ccc(O)cc53)[C@]4(O)CC2)c1` [Example 229, (5aS,6R,11bS)-14-(cyclopropylmethyl)-3-((R)-1-(4-methyl-1H-pyrazol-1-yl)propan-2-yl)-2,3,4,5,6,7-hexahydro-6,11b-(epiminoethano)naphtho[1,2-d]azepine-5a,10(1H)-diol] came in with a 50% effective concentration (EC50) of 0.025 nM. This compound returned a CLint scaled in “Metabolic stability test” of 5.1 mL/min/kg.

In the case of `Oc1ccc2c(c1)[C@@]13CCN(CCn4cccn4)CC[C@@]1(O)[C@@H](C2)N(CC1CC1)CC3` [Example 45, (5aS,6R,11bS)-3-(2-(1H-pyrazol-1-yl)ethyl)-14-(cyclopropylmethyl)-2,3,4,5,6,7-hexahydro-6,11b-(epiminoethano)naphtho[1,2-d]azepine-5a,10(1H)-diol], the EC50 at human κ opioid receptors is 0.17 nM. Also, the Writhing suppression rate result in the data set with ICR male mice (Subcutaneous, dose 30 (μg/kg)) is on record as “++ (60 ≤ % <80: ++)”. Besides, in “Metabolic stability test”, the CLint scaled is 4.5 mL/min/kg.

Compound `Oc1ccc2c(c1)[C@@]13CCN(CCc4ccccc4)CC[C@@]1(O)[C@@H](C2)N(CC1CC1)CC3` [Example 90, (5aS,6R,11bS)-14-(cyclopropylmethyl)-3-phenethyl-2,3,4,5,6,7-hexahydro-6,11b-(epiminoethano)naphtho[1,2-d]azepine-5a,10(1H)-diol] registered an EC50 on human κ opioid receptors of 0.87 nM. The compound further gave an intrinsic metabolic clearance (CLint scaled) in “Metabolic stability test” of 11.6 mL/min/kg.

`COc1c(O)ccc2c1[C@@]13CCN(CCn4cc(C)cn4)CC[C@@]1(O)[C@@H](C2)N(CC1CC1)CC3` [Example 332, (5aS,6R,11bS)-14-(cyclopropylmethyl)-11-methoxy-3-(2-(4-methyl-1H-pyrazol-1-yl)ethyl)-2,3,4,5,6,7-hexahydro-6,11b-(epiminoethano)naphtho[1,2-d]azepine-5a,10(1H)-diol] had a half-maximal effective concentration (EC50) at human κ opioid receptors of 0.64 nM. This compound also showed an intrinsic clearance (CLint scaled) in “Metabolic stability test” of 9.2 mL/min/kg.

`Cc1cnn(CCN2CC[C@]34CCN(CC5CC5)[C@H](Cc5cc(Br)c(O)cc53)[C@]4(O)CC2)c1` [Example 263, (5aS,6R,11bS)-9-bromo-14-(cyclopropylmethyl)-3-(2-(4-methyl-1H-pyrazol-1-yl)ethyl)-2,3,4,5,6,7-hexahydro-6,11b-(epiminoethano)naphtho[1,2-d]azepine-5a,10(1H)-diol] registered an EC50 on human κ opioid receptors of 0.89 nM. This compound displayed a CLint scaled in “Metabolic stability test” of 18 mL/min/kg.

Take `Cc1cnn(CCN2CC[C@]34CCN(CC5CC5)[C@H](Cc5cc(C)c(O)cc53)[C@]4(O)CC2)c1` [Example 262, (5aS,6R,11bS)-14-(cyclopropylmethyl)-9-methyl-3-(2-(4-methyl-1H-pyrazol-1-yl)ethyl)-2,3,4,5,6,7-hexahydro-6,11b-(epiminoethano)naphtho[1,2-d]azepine-5a,10(1H)-diol]: the half-maximal effective concentration (EC50) on human κ opioid receptors stood at 0.085 nM. In “Metabolic stability test”, the intrinsic metabolic clearance (CLint scaled) turned out to be 5.8 mL/min/kg.

`CC1C[C@@]2(O)[C@H]3Cc4ccc(O)cc4[C@]2(CCN1C(=O)Cc1ccccn1)CCN3CC1CC1` (stereo partly drawn) [Example 281, 1-((5aS,6R,11bR)-14-(cyclopropylmethyl)-5a,10-dihydroxy-4-methyl-1,2,5,5a,6,7-hexahydro-6,11b-(epiminoethano)naphtho[1,2-d]azepin-3(4H)-yl)-2-(pyridin-2-yl)ethan-1-one] gave an EC50 on human κ opioid receptors of 0.14 nM. This compound yielded an intrinsic metabolic clearance (CLint scaled) in “Metabolic stability test” of 13.7 mL/min/kg.

On human κ opioid receptors, `Cc1cnn(CCN2CC[C@]34CCN(CC5CC5)[C@H](Cc5ccc(C(N)=O)cc53)[C@]4(O)CC2)c1` [Example 244, (5aS,6R,11bS)-14-(cyclopropylmethyl)-5a-hydroxy-3-(2-(4-methyl-1H-pyrazol-1-yl)ethyl)-1,2,3,4,5,5a,6,7-octahydro-6,11b-(epiminoethano)naphtho[1,2-d]azepine-10-carboxamide] yielded an EC50 of 0.47 nM. Besides, the CLint scaled in the data set “Metabolic stability test” turned out to be 7.7 mL/min/kg.
